Measurements from ChEMBL document CHEMBL1201862, “PubChem BioAssay data set” (2004).
Several values for one entry are separate records, joined by “and”; a condition that tells them apart may be missing. Equal entries are not always repeated. Activity calls are given as the source filed them.

Experiments:
Caspase-3 = molecular target: T1, Caspase-3 (Homo sapiens, UniProt P42574); experiment: inhibition of recombinant caspase-3 activity – biochemical, luminescence, set 2, selectivity assay for SENP protease inhibitor project, SAR follow-up (AID 588599); assay type: functional
T1 sequence (P42574 whole entry): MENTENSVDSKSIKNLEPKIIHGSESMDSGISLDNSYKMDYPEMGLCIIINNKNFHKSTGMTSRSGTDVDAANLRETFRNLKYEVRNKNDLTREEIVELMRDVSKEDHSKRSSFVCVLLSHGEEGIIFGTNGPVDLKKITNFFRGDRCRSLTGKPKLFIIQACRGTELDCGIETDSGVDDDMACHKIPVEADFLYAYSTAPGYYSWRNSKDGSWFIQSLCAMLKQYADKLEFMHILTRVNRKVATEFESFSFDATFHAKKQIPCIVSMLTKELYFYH

[1] = molecular target: T2, Sentrin-specific protease 8 (Homo sapiens, UniProt Q96LD8); experiment: inhibition of sentrin protease 8 – biochemical, luminescence, set 2, SAR follow-up (AID 588601); assay type: functional
T2 sequence (Q96LD8 whole entry): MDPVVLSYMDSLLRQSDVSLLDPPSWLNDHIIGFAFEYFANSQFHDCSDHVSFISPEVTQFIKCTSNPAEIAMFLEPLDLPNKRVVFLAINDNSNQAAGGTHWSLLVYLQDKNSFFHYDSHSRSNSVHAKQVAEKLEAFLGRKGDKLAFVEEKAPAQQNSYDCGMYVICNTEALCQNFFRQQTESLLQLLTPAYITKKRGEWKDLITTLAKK

[2] = molecular target: T3, Sentrin-specific protease 7 (Homo sapiens, UniProt Q9BQF6); experiment: inhibition of human SENP7 cleavage activity – biochemical, luminescence, set 2, SAR follow-up (AID 588600); assay type: functional
T3 sequence (Q9BQF6 whole entry): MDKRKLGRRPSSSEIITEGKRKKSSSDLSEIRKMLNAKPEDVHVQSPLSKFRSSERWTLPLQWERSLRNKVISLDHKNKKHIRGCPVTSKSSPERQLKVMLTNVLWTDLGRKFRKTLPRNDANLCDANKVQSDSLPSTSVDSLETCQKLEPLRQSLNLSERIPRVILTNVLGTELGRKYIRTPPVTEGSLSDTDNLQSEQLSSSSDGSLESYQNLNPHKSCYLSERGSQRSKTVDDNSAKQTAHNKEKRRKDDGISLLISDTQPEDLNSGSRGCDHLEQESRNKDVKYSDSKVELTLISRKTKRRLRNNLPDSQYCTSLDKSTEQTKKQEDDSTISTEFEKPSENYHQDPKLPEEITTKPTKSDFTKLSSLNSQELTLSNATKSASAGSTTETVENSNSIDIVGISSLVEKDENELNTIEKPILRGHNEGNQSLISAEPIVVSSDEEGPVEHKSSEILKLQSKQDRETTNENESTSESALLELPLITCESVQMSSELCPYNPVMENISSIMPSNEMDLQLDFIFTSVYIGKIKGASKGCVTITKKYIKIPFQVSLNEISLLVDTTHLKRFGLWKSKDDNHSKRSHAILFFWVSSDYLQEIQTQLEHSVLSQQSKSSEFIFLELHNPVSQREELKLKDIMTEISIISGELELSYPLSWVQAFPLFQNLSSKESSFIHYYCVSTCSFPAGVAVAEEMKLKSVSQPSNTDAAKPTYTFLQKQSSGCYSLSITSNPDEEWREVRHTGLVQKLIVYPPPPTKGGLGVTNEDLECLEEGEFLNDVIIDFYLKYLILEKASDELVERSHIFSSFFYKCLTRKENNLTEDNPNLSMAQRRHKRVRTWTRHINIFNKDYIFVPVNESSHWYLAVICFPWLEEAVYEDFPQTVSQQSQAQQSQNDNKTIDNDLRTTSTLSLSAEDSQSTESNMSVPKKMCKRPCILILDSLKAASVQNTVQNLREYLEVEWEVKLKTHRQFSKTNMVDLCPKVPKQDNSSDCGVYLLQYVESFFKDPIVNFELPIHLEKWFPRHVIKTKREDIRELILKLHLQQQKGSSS

[3] = molecular target: T4, Sentrin-specific protease 6 (Homo sapiens, UniProt Q9GZR1); experiment: inhibition of human SENP6 catalytic domain – biochemical, luminescence, set 2, SAR follow-up (AID 588598); assay type: functional
T4 sequence (Q9GZR1 whole entry): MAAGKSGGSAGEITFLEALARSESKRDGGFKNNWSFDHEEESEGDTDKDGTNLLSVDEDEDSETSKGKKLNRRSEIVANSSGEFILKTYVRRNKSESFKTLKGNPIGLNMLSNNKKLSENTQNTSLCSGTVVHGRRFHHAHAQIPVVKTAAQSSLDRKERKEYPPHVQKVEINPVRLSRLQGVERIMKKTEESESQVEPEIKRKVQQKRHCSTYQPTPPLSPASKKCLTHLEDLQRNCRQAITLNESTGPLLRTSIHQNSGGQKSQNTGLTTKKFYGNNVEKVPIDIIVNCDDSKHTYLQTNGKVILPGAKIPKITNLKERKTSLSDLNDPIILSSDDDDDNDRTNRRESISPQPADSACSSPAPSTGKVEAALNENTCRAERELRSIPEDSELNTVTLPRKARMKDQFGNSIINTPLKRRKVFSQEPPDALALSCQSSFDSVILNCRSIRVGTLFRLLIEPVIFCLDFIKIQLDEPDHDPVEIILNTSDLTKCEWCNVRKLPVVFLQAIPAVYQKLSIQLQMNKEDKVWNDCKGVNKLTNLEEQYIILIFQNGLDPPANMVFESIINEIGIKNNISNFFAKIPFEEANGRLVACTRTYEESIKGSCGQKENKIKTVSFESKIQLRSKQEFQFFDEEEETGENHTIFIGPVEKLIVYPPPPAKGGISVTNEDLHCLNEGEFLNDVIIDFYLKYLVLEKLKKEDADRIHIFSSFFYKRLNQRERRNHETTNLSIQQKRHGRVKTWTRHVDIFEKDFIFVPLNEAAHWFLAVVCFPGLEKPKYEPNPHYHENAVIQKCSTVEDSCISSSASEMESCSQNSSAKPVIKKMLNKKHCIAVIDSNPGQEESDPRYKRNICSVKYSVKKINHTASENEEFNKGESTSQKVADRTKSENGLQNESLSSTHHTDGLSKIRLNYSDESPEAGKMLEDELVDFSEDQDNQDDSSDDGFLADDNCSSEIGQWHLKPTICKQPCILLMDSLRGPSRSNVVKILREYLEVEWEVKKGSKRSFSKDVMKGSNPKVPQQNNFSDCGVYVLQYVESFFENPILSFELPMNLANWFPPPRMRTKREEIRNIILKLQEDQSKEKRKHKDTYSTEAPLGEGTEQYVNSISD

Candida albicans [4] = experiment: antifungal activity against resistant Candida strain – CaCi-8, fluconazole, Alamar Blue, dry powder, dose response (AID 488807); assay type: functional, organism-based
Candida albicans [5] = experiment: Candida growth effect without fluconazole – C. albicans CaCi-2, dry powder, counter-screen for antifungal drug resistance project, dose response (AID 488802); assay type: functional, organism-based
NIH3T3 = experiment: mammalian cell viability counter-check – Alamar Blue, fluconazole, dry powder, cytotoxicity control for antifungal drug resistance project, dose response (AID 488809); assay type: functional, cell-based; conditions: Mus musculus
[6] = molecular target: Induced myeloid leukemia cell differentiation protein Mcl-1 (Homo sapiens, UniProt Q07820); assay type: functional
Beta-galactosidase = Beta-galactosidase (Escherichia coli, UniProt Q8VNN2); experiment: detection-enzyme interference by beta-gal modulators – biochemical, E. coli enzyme, set 3, artefact control for CCR6 antagonist project, dose response (AID 504712); assay type: functional
[7] = molecular target: Neurotensin receptor type 1 (Homo sapiens, UniProt P30989); assay type: functional;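 note: Image-based confirmatory dose-response assay measuring agonist activity at NTR1; NTR1-expressing U2OS osteosarcoma cells imaged for beta-arrestin GFP spot formation; agonist potency where compounds increase beta-arrestin recruitment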
HEK293 = experiment: EBV LMP1 TES2 canonical NF-kB signalling blockers – cell-based, HEK293, luciferase, cherry-pick, dose response (AID 588343); assay type: functional; conditions: Homo sapiens
[8] = molecular target: Latent membrane protein 1 (Human herpesvirus 4 (strain B95-8), UniProt P03230); experiment: LMP1 TES1 pathway selectivity over dsRED control – imaging, HEK293T, dual-color eGFP/dsRED, cherry-picks, selectivity assay for LMP1 NF-kB inhibitor project, dose response (AID 588398); assay type: functional, cell-based
[9] = reduction of Shn3 3'UTR-driven luciferase in osteoblasts – cell-based, Clone20 osteoblasts, firefly luciferase, cherry-picked, dose response (AID 624132); assay type: functional;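 note: firefly luciferase luminescence from reporter carrying the Shn3 3'UTR in osteoblasts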
[10] = loss of viability in HepG2 cells – cell-based, CellTiter-Glo, cherry-picked, cytotoxicity control for Shn3 inhibitor project, dose response (AID 624134); assay type: functional
[11] = non-specific 3'UTR reporter inhibition in Clone20-Shn3RL – cell-based, Renilla luciferase, cherry-picked, counter-screen for Shn3 inhibitor project, dose response (AID 624133); assay type: functional
[12] = Fluorescence-based cell-based high throughput dose response assay for inhibitors of the interaction of nucleotide-binding oligomerization domain containing 2 (NOD2) and the receptor-interacting serine-threonine kinase 2 (RIPK2).; assay type: functional; conditions: Homo sapiens
Beta Lactamase = Beta Lactamase (Pseudomonas aeruginosa, UniProt Q932Y6); experiment: BLA reporter interference, concentration series – BLA reporter cells, FRET fluorescence, artefact control for NOD2-RIPK2 interaction inhibitor project, dose response (AID 651552); assay type: functional, cell-based
Beta Lactamase, sequence (Q932Y6 whole entry): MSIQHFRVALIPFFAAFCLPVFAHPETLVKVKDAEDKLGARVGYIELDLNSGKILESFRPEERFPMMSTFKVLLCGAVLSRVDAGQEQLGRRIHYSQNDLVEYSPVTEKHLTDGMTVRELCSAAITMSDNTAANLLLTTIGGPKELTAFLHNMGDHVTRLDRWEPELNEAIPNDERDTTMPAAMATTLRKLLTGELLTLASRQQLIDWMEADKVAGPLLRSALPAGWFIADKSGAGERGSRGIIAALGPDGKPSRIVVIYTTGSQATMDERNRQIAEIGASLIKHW

[13] = molecular target: Luciferin 4-monooxygenase (Photinus pyralis, UniProt P08659); experiment: inhibition of purified Photinus pyralis luciferase – biochemical, luminescence, dose response (AID 1891)
[14] = Luminescence Cell-Based Dose Confirmation HTS to Identify Inhibitors of Platelet Dense Granule Release. [Related pubchem assays: 1663 (Primary HTS), 1678 (Summary of Project)]; assay type: functional
[15] = THP-1 cell cytotoxicity, cytotoxicity control, set 5 (AID 588443); assay type: functional
[16] = Vero cell viability loss – purified and synthesized compounds, set 6, cytotoxicity control for M. tuberculosis inhibitor project, dose response (AID 588445); assay type: functional; conditions: Mycobacterium tuberculosis
[17] = molecular target: Protein disulfide-isomerase (Homo sapiens, UniProt P07237); experiment: inhibition of PDI-driven insulin aggregation – biochemical, turbidity, absorbance, cherry-picked samples, dose response (AID 602350); assay type: functional
Protein disulfide-isomerase, sequence (P07237 whole entry): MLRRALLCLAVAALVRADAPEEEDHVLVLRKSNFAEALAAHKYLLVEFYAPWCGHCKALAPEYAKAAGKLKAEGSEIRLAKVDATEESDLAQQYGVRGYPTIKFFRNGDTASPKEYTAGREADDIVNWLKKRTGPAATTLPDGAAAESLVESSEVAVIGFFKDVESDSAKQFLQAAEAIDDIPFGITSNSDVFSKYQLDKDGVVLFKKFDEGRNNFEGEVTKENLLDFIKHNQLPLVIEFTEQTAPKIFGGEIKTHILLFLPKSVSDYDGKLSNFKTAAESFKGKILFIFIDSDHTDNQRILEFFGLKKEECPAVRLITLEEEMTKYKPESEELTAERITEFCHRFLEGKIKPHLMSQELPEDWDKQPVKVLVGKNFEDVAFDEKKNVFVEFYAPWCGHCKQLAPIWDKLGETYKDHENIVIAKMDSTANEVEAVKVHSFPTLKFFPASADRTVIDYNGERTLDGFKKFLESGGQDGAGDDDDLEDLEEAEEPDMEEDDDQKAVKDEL

[18] = molecular target: Scavenger receptor class B member 1 (Mus musculus, UniProt Q61009); experiment: blockers of DiI-HDL lipid transfer via SR-BI – cell-based, ldlA[mSR-BI] CHO, DiI fluorescence, dry powder, set 10, dose response (AID 624029); assay type: functional
Scavenger receptor class B member 1, sequence (Q61009 whole entry): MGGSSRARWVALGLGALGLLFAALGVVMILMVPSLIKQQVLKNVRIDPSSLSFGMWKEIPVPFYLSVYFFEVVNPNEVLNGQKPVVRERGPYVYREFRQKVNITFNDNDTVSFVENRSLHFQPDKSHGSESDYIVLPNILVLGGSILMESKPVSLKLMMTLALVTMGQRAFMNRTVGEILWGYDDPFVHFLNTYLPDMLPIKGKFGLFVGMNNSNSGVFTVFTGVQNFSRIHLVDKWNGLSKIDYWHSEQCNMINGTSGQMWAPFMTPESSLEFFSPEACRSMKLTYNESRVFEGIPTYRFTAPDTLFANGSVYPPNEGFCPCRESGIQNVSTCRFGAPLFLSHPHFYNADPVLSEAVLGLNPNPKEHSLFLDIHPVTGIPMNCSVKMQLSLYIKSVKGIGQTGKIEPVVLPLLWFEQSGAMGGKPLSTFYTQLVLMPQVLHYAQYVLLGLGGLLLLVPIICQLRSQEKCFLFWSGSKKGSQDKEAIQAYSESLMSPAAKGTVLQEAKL

[19] = molecular target: Cell division cycle 7-related protein kinase (Homo sapiens, UniProt O00311); assay type: functional;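 note: value obtained from a kinome-wide kinase panel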
Cell division cycle 7-related protein kinase, sequence (O00311 whole entry): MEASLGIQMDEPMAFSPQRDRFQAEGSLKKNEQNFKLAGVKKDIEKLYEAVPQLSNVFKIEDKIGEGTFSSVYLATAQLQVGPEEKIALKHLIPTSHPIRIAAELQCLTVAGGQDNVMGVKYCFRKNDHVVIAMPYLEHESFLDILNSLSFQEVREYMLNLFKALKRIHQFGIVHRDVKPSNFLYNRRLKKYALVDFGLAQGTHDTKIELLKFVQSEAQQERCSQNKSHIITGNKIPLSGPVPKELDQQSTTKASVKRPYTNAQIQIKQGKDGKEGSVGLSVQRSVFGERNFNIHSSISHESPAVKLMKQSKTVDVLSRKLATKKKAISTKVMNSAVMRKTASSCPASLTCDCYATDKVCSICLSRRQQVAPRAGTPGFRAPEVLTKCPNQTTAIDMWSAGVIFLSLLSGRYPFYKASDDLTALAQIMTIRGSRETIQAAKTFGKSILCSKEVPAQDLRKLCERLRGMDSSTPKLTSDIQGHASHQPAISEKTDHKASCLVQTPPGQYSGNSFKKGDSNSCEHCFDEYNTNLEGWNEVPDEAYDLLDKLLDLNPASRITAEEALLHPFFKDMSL

Wee1-like protein kinase = Wee1-like protein kinase (Homo sapiens, UniProt P30291); experiment: Navigating the Kinome. Panel member name: WEE1; assay type: functional
[20] = molecular target: Mast/stem cell growth factor receptor Kit (Homo sapiens, UniProt P10721); assay type: functional;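 note: KIT entry within a kinase panel assay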
Mast/stem cell growth factor receptor Kit, sequence (P10721 whole entry): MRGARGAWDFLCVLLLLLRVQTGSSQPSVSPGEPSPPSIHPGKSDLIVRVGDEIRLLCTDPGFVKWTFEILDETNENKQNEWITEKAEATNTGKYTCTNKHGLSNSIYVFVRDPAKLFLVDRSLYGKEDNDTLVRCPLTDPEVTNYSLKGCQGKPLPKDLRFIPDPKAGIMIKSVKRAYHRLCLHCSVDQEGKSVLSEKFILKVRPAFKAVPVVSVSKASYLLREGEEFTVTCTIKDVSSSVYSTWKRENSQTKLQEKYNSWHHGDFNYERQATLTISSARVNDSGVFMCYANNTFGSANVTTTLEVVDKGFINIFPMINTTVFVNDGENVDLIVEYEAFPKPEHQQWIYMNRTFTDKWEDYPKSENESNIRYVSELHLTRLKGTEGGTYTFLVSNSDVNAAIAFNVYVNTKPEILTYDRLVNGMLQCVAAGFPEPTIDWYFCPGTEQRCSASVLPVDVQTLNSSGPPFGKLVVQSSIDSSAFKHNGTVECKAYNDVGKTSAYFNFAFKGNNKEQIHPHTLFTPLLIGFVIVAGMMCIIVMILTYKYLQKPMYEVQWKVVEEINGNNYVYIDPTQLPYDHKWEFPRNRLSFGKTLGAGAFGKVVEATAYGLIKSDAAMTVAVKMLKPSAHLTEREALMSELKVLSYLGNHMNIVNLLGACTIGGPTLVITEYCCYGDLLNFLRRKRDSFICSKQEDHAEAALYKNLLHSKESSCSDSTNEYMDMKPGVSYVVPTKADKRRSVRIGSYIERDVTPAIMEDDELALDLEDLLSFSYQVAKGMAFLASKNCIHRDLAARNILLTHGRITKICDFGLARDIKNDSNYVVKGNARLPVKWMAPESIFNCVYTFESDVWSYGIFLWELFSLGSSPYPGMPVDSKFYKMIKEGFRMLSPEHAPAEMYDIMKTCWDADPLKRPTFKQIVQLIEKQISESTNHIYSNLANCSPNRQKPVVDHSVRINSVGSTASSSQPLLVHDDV

[21] = molecular target: Mitogen-activated protein kinase 13 (Homo sapiens, UniProt O15264); assay type: functional
Mitogen-activated protein kinase 13, sequence (O15264 whole entry): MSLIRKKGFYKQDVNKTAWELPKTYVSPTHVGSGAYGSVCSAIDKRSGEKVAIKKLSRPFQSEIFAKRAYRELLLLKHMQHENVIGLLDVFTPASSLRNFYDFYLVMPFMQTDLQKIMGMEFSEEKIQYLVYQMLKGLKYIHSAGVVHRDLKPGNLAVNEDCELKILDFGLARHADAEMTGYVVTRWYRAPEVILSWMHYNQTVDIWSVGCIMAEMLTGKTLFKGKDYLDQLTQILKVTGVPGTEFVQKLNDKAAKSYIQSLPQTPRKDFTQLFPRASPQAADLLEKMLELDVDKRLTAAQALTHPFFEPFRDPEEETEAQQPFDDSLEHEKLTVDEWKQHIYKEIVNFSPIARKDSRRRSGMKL

[22] = molecular target: Serine/threonine-protein kinase pim-1 (Homo sapiens, UniProt P11309); assay type: functional
Serine/threonine-protein kinase pim-1, sequence (P11309 whole entry): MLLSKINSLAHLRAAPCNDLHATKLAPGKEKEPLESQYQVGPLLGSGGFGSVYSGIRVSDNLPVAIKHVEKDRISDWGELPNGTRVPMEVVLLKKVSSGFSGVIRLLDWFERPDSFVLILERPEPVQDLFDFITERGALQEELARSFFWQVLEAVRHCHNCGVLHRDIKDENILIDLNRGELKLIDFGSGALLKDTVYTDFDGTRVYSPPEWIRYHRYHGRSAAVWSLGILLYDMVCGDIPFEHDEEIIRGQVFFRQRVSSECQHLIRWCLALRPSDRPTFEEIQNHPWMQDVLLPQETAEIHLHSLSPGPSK

[23] = molecular target: Homeodomain-interacting protein kinase 2 (Homo sapiens, UniProt Q9H2X6); assay type: functional;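 note: measured within a kinome-wide kinase profiling panel, HIPK2 being one panel member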
[24] = molecular target: Interleukin-1 receptor-associated kinase 4 (Homo sapiens, UniProt Q9NWZ3); assay type: functional
Interleukin-1 receptor-associated kinase 4, sequence (Q9NWZ3 whole entry): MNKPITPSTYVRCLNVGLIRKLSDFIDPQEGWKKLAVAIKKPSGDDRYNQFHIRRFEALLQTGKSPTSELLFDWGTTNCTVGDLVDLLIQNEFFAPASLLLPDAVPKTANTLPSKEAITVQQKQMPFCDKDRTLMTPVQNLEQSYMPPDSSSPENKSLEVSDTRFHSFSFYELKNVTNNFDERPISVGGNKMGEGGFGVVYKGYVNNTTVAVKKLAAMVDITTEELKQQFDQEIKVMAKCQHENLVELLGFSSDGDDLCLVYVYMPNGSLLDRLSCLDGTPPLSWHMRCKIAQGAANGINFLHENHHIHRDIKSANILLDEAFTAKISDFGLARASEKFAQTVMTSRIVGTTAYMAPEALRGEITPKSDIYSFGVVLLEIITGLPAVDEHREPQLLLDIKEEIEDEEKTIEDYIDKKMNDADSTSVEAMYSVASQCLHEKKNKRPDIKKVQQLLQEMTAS

[25] = molecular target: Glycogen synthase kinase-3 beta (Homo sapiens, UniProt P49841); assay type: functional;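 note: value comes from a broad kinome profiling panel, with GSK3B as the panel member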
[26] = molecular target: cAMP-dependent protein kinase catalytic subunit alpha (Homo sapiens, UniProt P17612); assay type: functional
[27] = molecular target: Dual specificity protein kinase CLK4 (Homo sapiens, UniProt Q9HAZ1); assay type: functional
[28] = molecular target: Mitogen-activated protein kinase kinase kinase kinase 4 (Homo sapiens, UniProt O95819); assay type: functional
[29] = molecular target: Cyclin-dependent kinase 19 (Homo sapiens, UniProt Q9BWU1); experiment: Navigating the Kinome. Panel member name: CDC2L6; assay type: functional
Cyclin-dependent kinase 19, sequence (Q9BWU1 whole entry): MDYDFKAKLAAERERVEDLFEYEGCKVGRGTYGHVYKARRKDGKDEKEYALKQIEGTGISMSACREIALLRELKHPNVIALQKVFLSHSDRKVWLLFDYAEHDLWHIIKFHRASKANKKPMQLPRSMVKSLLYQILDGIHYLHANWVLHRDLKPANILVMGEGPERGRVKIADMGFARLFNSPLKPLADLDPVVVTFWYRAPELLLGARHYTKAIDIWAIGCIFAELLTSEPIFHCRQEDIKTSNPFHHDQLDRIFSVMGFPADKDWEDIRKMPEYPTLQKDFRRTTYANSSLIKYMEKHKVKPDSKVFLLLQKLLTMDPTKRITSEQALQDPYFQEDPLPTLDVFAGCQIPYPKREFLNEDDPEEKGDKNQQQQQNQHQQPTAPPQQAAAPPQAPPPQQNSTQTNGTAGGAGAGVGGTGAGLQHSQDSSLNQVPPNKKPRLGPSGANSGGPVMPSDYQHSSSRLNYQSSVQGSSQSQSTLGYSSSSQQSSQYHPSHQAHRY

[30] = molecular target: Cyclin-dependent kinase 8 (Homo sapiens, UniProt P49336); experiment: Navigating the Kinome. Panel member name: CDK8; assay type: functional
Cyclin-dependent kinase 8, sequence (P49336 whole entry): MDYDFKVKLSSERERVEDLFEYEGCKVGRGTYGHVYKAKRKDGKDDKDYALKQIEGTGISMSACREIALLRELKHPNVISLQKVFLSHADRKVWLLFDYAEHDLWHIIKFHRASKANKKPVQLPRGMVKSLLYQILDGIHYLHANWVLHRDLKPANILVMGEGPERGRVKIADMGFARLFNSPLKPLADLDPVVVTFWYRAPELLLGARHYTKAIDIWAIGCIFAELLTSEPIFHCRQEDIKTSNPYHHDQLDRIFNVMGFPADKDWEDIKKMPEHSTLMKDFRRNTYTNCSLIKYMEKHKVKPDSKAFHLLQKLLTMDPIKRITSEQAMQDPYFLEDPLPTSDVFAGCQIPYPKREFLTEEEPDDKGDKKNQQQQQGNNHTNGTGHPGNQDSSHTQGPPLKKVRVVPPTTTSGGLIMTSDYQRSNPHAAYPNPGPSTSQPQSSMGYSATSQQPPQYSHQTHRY

NS(=O)(=O)c1ccc(CCNC(=O)C(=O)c2c[nH]c3ccccc23)cc1
inactive: IC50 (Caspase-3) > 99 µM | IC50 [1] > 99 µM | IC50 [2] > 99 µM | IC50 [3] > 99 µM

COc1ccc(NC(=O)Cn2c3ccccc3c3nc4n(c(=O)c32)CCS4)cc1
active: AC50 (Candida albicans [4]) 12.7 µM | AC50 (Candida albicans [5]) 50.1 µM | AC50 (NIH3T3) 34.2 µM

CCOc1ccc(/C=C/[N+](=O)[O-])c2ccccc12
active: IC50 [6] 2.18 µM | EC50 [7] 9.56 µM | AC50 (HEK293) 4.67 µM | AC50 [8] 1.63 µM | AC50 [9] 4.27 µM | AC50 [10] 3.78 µM | AC50 [11] 13.9 µM | IC50 [12] 1.76 µM
inactive: IC50 (Beta-galactosidase) > 66.6 µM | IC50 (Beta Lactamase) 43.1 µM

O=C(NCCc1ccc(Cl)cc1)c1ccc(CNc2c(N3CCOCC3)c(=O)c2=O)cc1
active: CC50 [15] > 100 µM | CC50 [16] > 100 µM
> 112 µM (not active): EC50 [13] | EC50 [14]

C[C@@H]1CN([C@H](C)CO)C(=O)c2cc(NC(=O)Cc3cn(C)c4ccccc34)ccc2O[C@H]1CN(C)S(=O)(=O)c1ccc(F)cc1
active: AC50 [17] 1.26 µM and 16.4 µM | AC50 [18] 0.00202 µM

c1cc(NC2CCCCC2)nc(Nc2ccc3cn[nH]c3c2)n1
active: Ki [19] 2 µM | Ki (Wee1-like protein kinase) 1 µM

COc1cc(-c2nn(C3CCC(N4CCN(C(C)=O)CC4)CC3)c3ncnc(N)c23)ccc1NC(=O)c1cc2ccccc2n1C (configuration not stated)
inactive: Ki [20] > 1.26 µM | Ki [21] > 7.94 µM

NC(=O)c1ccc(Nc2ncnc3[nH]cc(-c4ccccc4)c23)cc1
active: Ki [22] 3.98 µM | Ki [19] 0.0126 µM | Ki [23] 0.2 µM | Ki [24] 0.0631 µM | Ki [25] 0.158 µM | Ki [26] 2 µM | Ki [27] 0.01 µM | Ki [28] 0.0398 µM

Nc1nsc2cccc(C(=O)Nc3cccc(CNC(=O)Nc4cccc(F)c4)c3)c12
inactive: Ki [29] > 100 µM
active: Ki [30] 3.98 µM
